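All cell lines were grown in 96-well plates and treated with compound for 48 hours. GI50 is the concentration that inhibits growth by half.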 The source made the active and inactive calls. Cut-off read from the data, not from the text of the source: active = GI50 up to about 1.1 µM and inactive = higher.
Assays:
Assay in all cases: growth of human tumour cells (NCI), 48 h
NCI/ADR-RES = tested on: NCI/ADR-RES
DU-145 = tested on: DU-145
CCRF-CEM = tested on: CCRF-CEM
BT-549 = tested on: BT-549
KM12 = tested on: KM12
HOP-62 = tested on: HOP-62
SK-MEL-5 = tested on: SK-MEL-5
UACC-257 = tested on: UACC-257
UO-31 = tested on: UO-31
MDA-MB-231 = tested on: MDA-MB-231
ACHN = tested on: ACHN
MOLT-4 = tested on: MOLT-4
SR = tested on: SR
RXF 393 = tested on: RXF 393
SNB-75 = tested on: SNB-75
SF-539 = tested on: SF-539
SNB-19 = tested on: SNB-19
SN12C = tested on: SN12C
A498 = tested on: A498
TK-10 = tested on: TK-10

SMILES	GI50 (NCI/ADR-RES)	GI50 (DU-145)	GI50 (CCRF-CEM)	GI50 (BT-549)	GI50 (KM12)	GI50 (HOP-62)	GI50 (SK-MEL-5)	GI50 (UACC-257)	GI50 (UO-31)	GI50 (MDA-MB-231)	GI50 (ACHN)	GI50 (MOLT-4)	GI50 (SR)	GI50 (RXF 393)	GI50 (SNB-75)	GI50 (SF-539)	GI50 (SNB-19)	GI50 (SN12C)	GI50 (A498)	GI50 (TK-10)
O=c1oc2ccccc2cc1-c1ccc([N+](=O)[O-])cc1	> 100 µM (inactive)	> 100 µM (inactive)	> 100 µM (inactive)	16.5 µM (inactive)	> 100 µM (inactive)	> 100 µM (inactive)	53 µM (inactive)	> 100 µM (inactive)	> 100 µM (inactive)	> 100 µM (inactive)	> 100 µM (inactive)	> 100 µM (inactive)	57.9 µM (inactive)	> 100 µM (inactive)	> 100 µM (inactive)	17.9 µM (inactive)	14.7 µM (inactive)	> 100 µM (inactive)	85.5 µM (inactive)	> 100 µM (inactive)
CO/N=C\c1cc(O)c(O)c(/C=N/OC)c1	30.6 µM (inactive)	39.5 µM (inactive)	16 µM (inactive)	> 100 µM (inactive)	38.8 µM (inactive)	51.4 µM (inactive)	55.7 µM (inactive)	> 100 µM (inactive)	11.3 µM (inactive)	36.1 µM (inactive)	29.6 µM (inactive)	8.17 µM (inactive)	5.83 µM (inactive)	51.2 µM (inactive)	87.5 µM (inactive)	27 µM (inactive)	59.6 µM (inactive)	12.8 µM (inactive)	49.1 µM (inactive)	86.7 µM (inactive)
CC(=O)c1ccccc1NS(=O)(=O)c1ccc2nc(C)n(NS(=O)(=O)c3ccccc3C(C)=O)c(=O)c2c1	> 100 µM (inactive)	> 100 µM (inactive)	> 100 µM (inactive)	> 100 µM (inactive)	> 100 µM (inactive)	> 100 µM (inactive)	> 100 µM (inactive)	> 100 µM (inactive)	37.3 µM (inactive)	> 100 µM (inactive)	> 100 µM (inactive)	> 100 µM (inactive)	> 100 µM (inactive)	> 100 µM (inactive)	> 100 µM (inactive)	> 100 µM (inactive)	> 100 µM (inactive)	> 100 µM (inactive)	> 100 µM (inactive)	> 100 µM (inactive)
Nc1ccn(C2OC(CO)C(O)C2O)c(=O)n1 (stereo unspecified)	1.16 µM (inactive)	1.74 µM (inactive)	0.0527 µM (active)	286 µM (inactive)	468 µM (inactive)	0.213 µM (active)	19.8 µM (inactive)	120 µM (inactive)	6.15 µM (inactive)	196 µM (inactive)	0.277 µM (active)	0.0582 µM (active)	0.23 µM (active)	191 µM (inactive)	308 µM (inactive)	30.8 µM (inactive)	7.98 µM (inactive)	2.38 µM (inactive)	18 µM (inactive)	467 µM (inactive)
CC1=NN(C(=O)CC(=O)Nc2cccc(C)c2)C(=O)C1/N=N/c1ccc(C(=O)O)cc1 (stereo unspecified)	> 100 µM (inactive)	> 100 µM (inactive)	> 100 µM (inactive)	> 100 µM (inactive)	> 100 µM (inactive)	> 100 µM (inactive)	> 100 µM (inactive)	> 100 µM (inactive)	64.4 µM (inactive)	> 100 µM (inactive)	> 100 µM (inactive)		37.9 µM (inactive)	> 100 µM (inactive)	69.2 µM (inactive)	> 100 µM (inactive)	> 100 µM (inactive)	> 100 µM (inactive)	> 100 µM (inactive)	> 100 µM (inactive)
O=C(/C=C/c1ccc(OCc2ccccc2)c(OCc2ccccc2)c1)OCc1ccccc1	> 100 µM (inactive)	> 100 µM (inactive)		> 100 µM (inactive)	> 100 µM (inactive)	> 100 µM (inactive)	> 100 µM (inactive)	> 100 µM (inactive)	> 100 µM (inactive)	> 100 µM (inactive)	> 100 µM (inactive)	> 100 µM (inactive)	> 100 µM (inactive)	> 100 µM (inactive)	> 100 µM (inactive)	> 100 µM (inactive)	> 100 µM (inactive)	> 100 µM (inactive)	> 100 µM (inactive)	> 100 µM (inactive)
CCOP(=O)(OCC)C(NC(=O)OCC(Cl)(Cl)Cl)n1nnc(C(=O)OC)c1C(=O)OC (stereo unspecified)	> 100 µM (inactive)	> 100 µM (inactive)	> 100 µM (inactive)	> 100 µM (inactive)	> 100 µM (inactive)	> 100 µM (inactive)	> 100 µM (inactive)	> 100 µM (inactive)	> 100 µM (inactive)	> 100 µM (inactive)	> 100 µM (inactive)	> 100 µM (inactive)	> 100 µM (inactive)	> 100 µM (inactive)	> 100 µM (inactive)	> 100 µM (inactive)	> 100 µM (inactive)	> 10 µM (inactive)	> 100 µM (inactive)	> 100 µM (inactive)
CSc1ccc(/C=C2\N=C(c3ccccc3)N(/N=C3\C(=O)Nc4ccccc43)C2=O)cc1	> 100 µM (inactive)	> 100 µM (inactive)	92.5 µM (inactive)	> 100 µM (inactive)	> 100 µM (inactive)	> 100 µM (inactive)	> 100 µM (inactive)	> 100 µM (inactive)	> 100 µM (inactive)	> 100 µM (inactive)	> 100 µM (inactive)	29.7 µM (inactive)	22.6 µM (inactive)	> 100 µM (inactive)	> 100 µM (inactive)	> 100 µM (inactive)	> 100 µM (inactive)	> 100 µM (inactive)	> 100 µM (inactive)	> 100 µM (inactive)
O=C1/C(=C/c2ccccc2S)N=C(c2ccccc2)N1c1nc2c(Cl)cc(Cl)cc2s1	26.8 µM (inactive)	32.5 µM (inactive)	2.27 µM (inactive)	26.7 µM (inactive)	24.3 µM (inactive)	16.6 µM (inactive)	17.7 µM (inactive)	28.9 µM (inactive)	21 µM (inactive)	40.4 µM (inactive)	22.6 µM (inactive)	12.6 µM (inactive)	15.2 µM (inactive)	23.7 µM (inactive)	30.1 µM (inactive)	17 µM (inactive)	27.8 µM (inactive)	22.3 µM (inactive)	18.3 µM (inactive)	37.1 µM (inactive)
CC(=O)c1c(SCCN2CCCCCC2)n(-c2ccccc2)c(=S)n(-c2ccccc2)c1=O	34.5 µM (inactive)	2.17 µM (inactive)	0.0462 µM (active)	16.6 µM (inactive)	18.6 µM (inactive)	19.5 µM (inactive)	9.68 µM (inactive)	4.07 µM (inactive)		14.4 µM (inactive)	1.68 µM (inactive)	2.16 µM (inactive)	1.09 µM (active)	1.73 µM (inactive)	13.8 µM (inactive)	6 µM (inactive)	51.1 µM (inactive)	5.92 µM (inactive)	13.4 µM (inactive)	2.07 µM (inactive)
Nc1nc(Cl)c(/C=N\O)c(NCC2(CO)CCC2)n1	28.5 µM (inactive)	40.4 µM (inactive)	28.5 µM (inactive)	32.6 µM (inactive)	6.25 µM (inactive)	30.6 µM (inactive)	28.8 µM (inactive)	29.3 µM (inactive)	19.9 µM (inactive)	51.2 µM (inactive)	26.3 µM (inactive)	13.5 µM (inactive)	11.6 µM (inactive)	22.4 µM (inactive)	59.3 µM (inactive)	33.8 µM (inactive)	53.2 µM (inactive)	68.4 µM (inactive)	19.1 µM (inactive)	21.8 µM (inactive)
CN(C)CCCCN1c2ccccc2Sc2ccc(C(=O)c3ccccc3)cc21	4.39 µM (inactive)	3.63 µM (inactive)	2.27 µM (inactive)	6.01 µM (inactive)	2.02 µM (inactive)	3.13 µM (inactive)	1.82 µM (inactive)	1.94 µM (inactive)	2.6 µM (inactive)	2.11 µM (inactive)	2.94 µM (inactive)	2.21 µM (inactive)	3.83 µM (inactive)	1.22 µM (inactive)	2.34 µM (inactive)	3.29 µM (inactive)	4.06 µM (inactive)	3.11 µM (inactive)	13.8 µM (inactive)	3.8 µM (inactive)
CCOC(=O)C1=CNC(C(=O)OCC)C1c1cccn1-c1ccccc1 (stereo unspecified)	22.8 µM (inactive)	41.3 µM (inactive)	29.3 µM (inactive)	36.7 µM (inactive)	30.8 µM (inactive)	58.3 µM (inactive)	17.5 µM (inactive)	35.7 µM (inactive)	20.7 µM (inactive)	12.5 µM (inactive)	30.5 µM (inactive)	19.8 µM (inactive)	24.8 µM (inactive)	19.4 µM (inactive)	21.4 µM (inactive)	20.4 µM (inactive)		29.4 µM (inactive)	37 µM (inactive)	41.8 µM (inactive)
O=C(c1cccs1)N1CCN(C(=O)c2cccs2)C1=S	16.7 µM (inactive)	2.51 µM (inactive)	2.69 µM (inactive)	5.4 µM (inactive)	3.23 µM (inactive)	5.04 µM (inactive)	4.59 µM (inactive)	6.19 µM (inactive)	2.33 µM (inactive)	6.38 µM (inactive)	7.41 µM (inactive)	3.24 µM (inactive)	3.43 µM (inactive)	2.6 µM (inactive)	2.28 µM (inactive)	1.81 µM (inactive)	12.4 µM (inactive)	2.95 µM (inactive)	15.1 µM (inactive)	5.4 µM (inactive)

— ChEMBL document CHEMBL1201862, “PubChem BioAssay data set” (2004)
